Experimental data published in patent US8716228B2, “GPR54 agonists or antagonists for treatment of diseases presenting behavioral abnormalities” (YEDA Research and Development Co. Ltd., priority 2009, dated 2014).

Legend:
BDNF [1] = test: qPCR of BDNF transcripts in hippocampus; format: in vivo, mouse; settings: mRNA, offspring of poly I:C treated dams treated at 8 weeks with Kp-10 or PBS
Experimental: RNA purification, cDNA synthesis, reverse transcription PCR, and real-time quantitative PCR analysis. For RNA expression analysis, cells from whole hippocampi were extracted with TRI Reagent (MRC, Cincinnati, Ohio), and total cellular RNA was purified from the lysates using the RNeasy kit (Qiagen, Hilden, Germany). RNA (1 μg) was converted to cDNA using SuperScript II (Promega, Madison, Wis.). The amplification cycle was 95° C. for 5 s, 60° C. for 20 s, and 72° C. for 15 s.
The following primers were used: […]
To understand what is the mechanism behind the prophylactic treatment of Kp-10 we examined the expression of total brain-derived neurotrophic factor (BDNF) and its exon transcripts 1-4 according to Zajac et al. (2010). […] Recently, association between a BDNF variant and childhood-onset mood disorder was established (Strauss et al., 2005). Therefore, we studied mRNA expression of a few BDNF transcripts in the hippocampus of offspring of PBS treated dams (n=5) compared to offspring of poly I:C treated dams, which were treated at 8 weeks with either Kp-10 (n=6) or PBS (n=6) (Table 3). […] Treatment with Kp-10 at 8 weeks of age induced an increase in the expression of BDNF1 transcript to the normal level (Table 3(ii)). […] In addition, no significant difference was found between the groups in the expression of BDNF transcripts 3 and 4 (Table 3(iv and v)). […] The involvement of BDNF in schizophrenia and its effect on PPI levels are still a debate. Our observations of changes in expression of selective forms of BDNF might explain this apparent dichotomy.

C57B1/6 mice = test: PPI in MK-801 pharmacological model of schizophrenia; format: in vivo, mouse; settings: Kp-10 i.p. 100 μl of 100 μM 15 min prior to MK-801 (0.1 mg/kg)
Experimental: (§1) Prepulse Inhibition (PPI). PPI testing was performed within startle chambers purchased from Med Associates Inc (Med Associates, St. Albans, Vt., USA). PPI was analyzed as described previously (Kipnis et al., 2004). Briefly, during a period of acclimation, a 65-dB background noise was applied for 5-min, and continued throughout the test session. All sessions for testing of PPI consisted of startle trials (pulse alone, 40-ms, 120-dB), prepulse trials (prepulse 20-ms, 69, 73, 78, or 81 dB followed by a (100-ms delay) pulse), and no-stimulus trials. All sessions were presented in pseudo-random order. The average time between trials was 15 s (range 12-30 s). PPI was calculated as: % PPI=100−{[(startle response for prepulse+pulse)/(startle response for pulse-alone)]×100}. In all the experiments, there were no significant differences between groups in trials of startle reactivity to pulse alone, and in no-stimulation trials. Data from no-stimulation trials are not included in the results because the values obtained were negligible relative to values from trials containing startle stimuli. Reduced PPI is associated with schizophrenia-related behavior. […]
To further establish the antipsychotic effect of Kp-10, we evaluated its ability to overcome psychotic symptoms induced by the psycho-mimetic agent, MK-801 (N-methyl-D-aspartate (NMDA) antagonist), which induces neurotransmitter imbalance. […]

naive C57B1/6 mice = test: PPI in naive C57B1/6 mice; format: in vivo, mouse
Experimental: Prepulse Inhibition (PPI). PPI testing was performed within startle chambers purchased from Med Associates Inc (Med Associates, St. Albans, Vt., USA). […] Briefly, during a period of acclimation, a 65-dB background noise was applied for 5-min, and continued throughout the test session. All sessions for testing of PPI consisted of startle trials (pulse alone, 40-ms, 120-dB), prepulse trials (prepulse 20-ms, 69, 73, 78, or 81 dB followed by a (100-ms delay) pulse), and no-stimulus trials. All sessions were presented in pseudo-random order. The average time between trials was 15 s (range 12-30 s). PPI was calculated as: % PPI=100−{[(startle response for prepulse+pulse)/(startle response for pulse-alone)]×100}. […] Data from no-stimulation trials are not included in the results because the values obtained were negligible relative to values from trials containing startle stimuli.
Kisspeptin treatment. Mice were injected i.p with 100 μl of 1/10/100 μM Kp-10 peptide (SEQ ID NO:3) (synthesized at the Weizmann Institute of Science, or Sigma-Aldrich, Israel) dissolved in PBS, 30 minutes before the PPI analysis.
Neurotensin receptor antagonist SR142948 (TOCRIS COOKSON LTD) was used at 100 μg/kg 60 min before the PPI analysis.
GnRH receptor antagonist Cetrorelix Acetate (Cetrotide™, Anaspec Inc. Fremont, Calif.). Control mice were administered the same volume of PBS.
To examine whether Kp-10 can elevate PPI in naïve mice in a dose dependent manner, we analyzed PPI in C57B1/6 mice that were injected i.p with 100 μl of 1/10/100 μM Kp-10 (SEQ ID NO:3).

GPR54 = GPR54 (Mus musculus, UniProt Q91V45); settings: in vivo; cited from earlier work
GPR54, sequence (Q91V45 whole entry): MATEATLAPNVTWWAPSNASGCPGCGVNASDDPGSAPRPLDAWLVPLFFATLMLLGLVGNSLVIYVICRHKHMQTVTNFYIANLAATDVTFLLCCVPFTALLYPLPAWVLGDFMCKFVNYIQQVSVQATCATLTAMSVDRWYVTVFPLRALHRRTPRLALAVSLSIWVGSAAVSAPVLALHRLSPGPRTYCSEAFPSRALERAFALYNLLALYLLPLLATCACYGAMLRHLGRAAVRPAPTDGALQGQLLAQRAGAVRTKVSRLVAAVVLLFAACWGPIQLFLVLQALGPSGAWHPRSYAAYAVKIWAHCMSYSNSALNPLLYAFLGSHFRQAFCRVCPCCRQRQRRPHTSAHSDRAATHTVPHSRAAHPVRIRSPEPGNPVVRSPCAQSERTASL

BDNF [2] = settings: hippocampal slices; cited from earlier work
SCID mice = test: Prepulse inhibition (PPI) in SCID mice; format: in vivo, mouse; settings: adult (12 week old) SCID mice, i.p. 100 μl of 100 μM, 30 minutes prior to PPI testing, vs PBS
Experimental: as §1, with “trials.” for “trials. Data from no-stimulation trials are not included in the results because the values obtained were negligible relative to values from trials containing startle stimuli. Reduced PPI is associated with schizophrenia-related behavior.”
To confirm this possibility we examined whether injection of kisspeptin can restore the abnormal PPI in SCID mice to the normal level in wild-type mice. We analyzed the PPI in adult (12 week old) wild-type mice and, in SCID mice that were injected IP with 100 μl of 100 μM Kp-10 (SEQ ID NO:3), 30 minutes prior to PPI testing. […]

YNWNSFGLRF—NH2 [Kp-10]
Expression of BDNF1 transcript (BDNF [1]): *2.2 ± 0.5 | Expression of BDNF2 transcript (BDNF [1]): ^#6.7 ± 1 ^ | Expression of BDNF3 transcript (BDNF [1]): 8 ± 3 | Expression of BDNF4 transcript (BDNF [1]): 9 ± 2 | Expression of BDNF transcript (total BDNF) (BDNF [1]): 2.4 ± 0.5 | PPI levels (C57B1/6 mice): improved the PPI levels | PPI (naive C57B1/6 mice; 100 μl of 1000 μM, small group, data not shown, vs PBS): no improvement was detected | PPI (naive C57B1/6 mice; female C57B1/6 mice, single dose 100 μl of 100 μM): significantly increased the PPI | PPI 24 hours after administration (ANOVA of percent PPI) (naive C57B1/6 mice; male mice, 100 μl of 100 μM): no significant main effect of the treatment | duration of the effect on PPI (naive C57B1/6 mice; male mice, 100 μl of 100 μM): less than 24 hours | PPI after repeated injection (naive C57B1/6 mice; male mice, repeated injection 24 hours after the first): induced the elevation of the PPI again | PPI after repeated injection (naive C57B1/6 mice; male mice, repeated injection 7 days after the first): induced the elevation of the PPI again | PPI at adulthood (naive C57B1/6 mice; naive animals, single injection at adolescence, vs PBS): no differences between the Kp-10 and the PBS treated mice | PPI (naive C57B1/6 mice; naive male mice, i.p. 100 μl of 1 μM, vs PBS): improved PPI but the improvement was not statistically significant | PPI (naive C57B1/6 mice; naive male mice, i.p. 100 μl of 10 μM, vs PBS): significantly increased PPI | PPI (naive C57B1/6 mice; naive male mice, i.p. 100 μl of 100 μM, vs PBS): significantly increased PPI | GPR54 activation (GPR54): activate GPR54 in vivo | BDNF mRNA levels (BDNF [2]): elevate BDNF mRNA levels | PPI (SCID mice): restored the PPI of SCID mice back to the normal level
